How the values were obtained:
Type in all cases: biochemical, bacterial isolate LBAA (Pseudomonas strain LBAA)
[1] = biological target: LBAA glyphosate oxidoreductase variant w1v2v3 (SER84, ARG153, ARG334) (Ochrobactrum sp. G-1, UniProt D2KI28, H334R/K153R/S2A); assay: Kinetic analysis of domain switches, clone w1v2v3; conditions: substrate glyphosate
Description: (§1) The mutagenesis procedure used was that of Mn++-poisoned PCR and the template was a linearized glyphosate oxidoreductase gene plasmid containing the synthetic glyphosate oxidoreductase gene (SEQ ID NO:8). The oligonucleotide primers used were homologous to regions in the vector and flanking the glyphosate oxidoreductase gene. The PCR conditions employed were as follows: 1 minute at 94° C., 2 minutes at 55° C., and 3 minutes at 72° C. and with 35 cycles. A 5:1 ratio of dCTP+dGTP+TTP to dATP was used. The reactions contained MnCl2 at 125, 250, 375, or 500 μM. After the reaction, the amplified product was recloned into a vector containing a weak E. coli promoter. This vector was a pBR327 derivative containing the araBAD promoter and suitable cloning sites. […] Growth rates were determined by measuring A550 over a 96 hour period. […] Protein concentrations were determined using the Bio-Rad protein dye-binding assay. […] Ten minutes was determined to be the optimal time for the enzyme assay using 10 μg lysate. […] Enzyme activity was determined from the amount of glyoxylate-DNPH adduct formed by measuring A520 against a standard of glyoxylate. […] The Km and Vmax were determined from Lineweaver Burk, Eadie-Hofstee and hyperbolic kinetic plots. […]

[2] = biological target: LBAA glyphosate oxidoreductase variant ARG 334 (His334 to Arg) (Ochrobactrum sp. G-1, UniProt D2KI28, H334R/S2A); assay: Kinetic analysis of glyphosate oxidoreductase variant ARG 334 (site-directed mutagenesis)
[3] = biological target: LBAA glyphosate oxidoreductase variant v1w2w3 (GLY84, LYS153, HIS334) (Ochrobactrum sp. G-1, UniProt D2KI28, S2A/S84G); assay: Kinetic analysis of domain switches, clone v1w2w3; conditions: substrate glyphosate
Description: as §1

## O=C(O)CNCP(=O)(O)O [glyphosate, N-phosphonomethyl-glycine]
[1]
  VmKm: 0.28
[2]
  VmKm (Glyp): .23
[3]
  VmKm: 0.027
